These results are taken from patent US10689343B2, “Inhibitors of tryptophan 2,3-dioxygenase” (NETHERLANDS TRANSLATIONAL RESEARCH CENTER B.V., priority 2016, dated 2020).

In data set [1] the target is T1, TDO in SW48 colorectal carcinoma cells (Homo sapiens, UniProt P48775).
T1 construct: Endogenous expression of TDO has been determined in a variety of cancer cell lines; host or cells: SW48 colorectal carcinoma cells
Kind of data set: Cell-based assay for TDO in SW48 colorectal carcinoma cells (NFK GreenScreen). Particulars: 18 hours with L-tryptophan, read-out: IC50 on TDO in cells.

The target of data set [2] is T2, CYP2D6 (Homo sapiens, UniProt P10635). Kind of data set: P450-Glo CYP2D6 Luc-IP assay.
T2 sequence (P10635 whole entry): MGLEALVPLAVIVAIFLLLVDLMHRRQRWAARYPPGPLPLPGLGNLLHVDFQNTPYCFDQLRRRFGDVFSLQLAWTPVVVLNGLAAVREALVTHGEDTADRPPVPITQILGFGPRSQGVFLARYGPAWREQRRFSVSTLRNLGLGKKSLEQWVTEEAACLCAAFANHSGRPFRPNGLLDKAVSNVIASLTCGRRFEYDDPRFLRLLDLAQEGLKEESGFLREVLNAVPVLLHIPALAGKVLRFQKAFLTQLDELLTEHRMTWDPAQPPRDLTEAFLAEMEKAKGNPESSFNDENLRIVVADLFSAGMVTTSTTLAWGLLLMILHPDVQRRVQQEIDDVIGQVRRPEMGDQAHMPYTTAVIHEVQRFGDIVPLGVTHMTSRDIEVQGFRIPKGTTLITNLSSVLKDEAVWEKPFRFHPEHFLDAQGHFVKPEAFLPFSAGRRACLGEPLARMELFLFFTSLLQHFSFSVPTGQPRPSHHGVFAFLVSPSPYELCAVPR
In data set [3] the target is T3, CYP3A4 (Homo sapiens, UniProt P08684). In words: P450-Glo CYP3A4 luciferin isopropylacetal (Luc-IP) assay.
T3 sequence (P08684 whole entry): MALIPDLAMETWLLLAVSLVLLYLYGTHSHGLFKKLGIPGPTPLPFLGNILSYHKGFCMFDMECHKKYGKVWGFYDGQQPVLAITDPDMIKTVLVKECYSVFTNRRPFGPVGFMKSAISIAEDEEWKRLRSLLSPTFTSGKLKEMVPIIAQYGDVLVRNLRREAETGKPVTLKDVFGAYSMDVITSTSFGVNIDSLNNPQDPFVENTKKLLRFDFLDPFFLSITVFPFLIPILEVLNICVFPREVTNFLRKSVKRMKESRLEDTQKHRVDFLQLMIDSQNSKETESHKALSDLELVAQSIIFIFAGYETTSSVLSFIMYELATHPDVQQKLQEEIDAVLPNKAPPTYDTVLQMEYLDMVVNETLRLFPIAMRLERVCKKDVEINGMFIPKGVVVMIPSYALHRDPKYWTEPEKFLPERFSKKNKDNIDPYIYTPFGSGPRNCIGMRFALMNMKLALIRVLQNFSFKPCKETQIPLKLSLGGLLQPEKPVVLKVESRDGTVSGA
Source text: (§1) To determine the inhibitory potency of compounds on CYP3A4 enzyme, the P450-Glo CYP3A4 luciferin isopropylacetal (Luc-IP) assay was used (Promega, Madison, Wis., USA, Cat. No. V9920). The assay makes use of a luminogenic isopropylacetal (IPA) substrate that is a derivative from beetle luciferin, a substrate of luciferase enzymes. The IPA substrate is converted by CYP3A4 to luciferin, which in turn reacts with luciferase to produce an amount of light that is directly proportional to the activity of CYP3A4. Compounds were serially diluted in DMSO and finally in 400 mM K2HPO4, pH 7.4. 5 μl of compound solution and 5 μl of CYP3A4/substrate solution were combined in the well of a white 384-well Optiplate (Perkin Elmer). The DMSO concentration in the assay was 0.1%. After incubation for 10 minutes at room temperature in the dark, 10 μl of NADPH regeneration system was added and incubation was continued for 10 min. Then, 20 μl of Luciferin Detection Reagent was added to stop the reaction, and incubation was continued for another 20 min. Luminescence was measured on an Envision multimode reader and IC50 values were calculated using XLfit™. […] Instead of in a 96-well plate, the assay was performed in 384-well white Perkin Elmer Optiplate (cat. no. 6007290).
Another data set has as its target T4, Recombinant TDO (Homo sapiens, UniProt P48775).
T4 construct: Recombinant TDO (Seegers, N., et al.) and all other assay components were diluted in TDO reaction buffer
Kind of data set: Biochemical assay for TDO (NFK GreenScreen). The note with it: 50 nM TDO, 200 μM L-tryptophan. An outline of the steps: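 Recombinant human TDO (50 nM) preincubated with compound 60 min at room temperature in 100 mM NaH2PO4 pH 7.0, 0.02% Tween-20, with ascorbic acid. Reaction then run 15 min with 200 μM L-tryptophan (final), 0.3% DMSO. NFK product detected by NFK Green fluorescence after 3 h at 37° C; IC50 derived.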

For data set [4] the following is noted: mice treated with LM10; cited from earlier work.
For data set [5], the target named is T5, TDO expressed in mouse tumor cells (Mus musculus, UniProt P48776).
T5 construct: host or cells: mouse tumor cells
T5 sequence (P48776 whole entry): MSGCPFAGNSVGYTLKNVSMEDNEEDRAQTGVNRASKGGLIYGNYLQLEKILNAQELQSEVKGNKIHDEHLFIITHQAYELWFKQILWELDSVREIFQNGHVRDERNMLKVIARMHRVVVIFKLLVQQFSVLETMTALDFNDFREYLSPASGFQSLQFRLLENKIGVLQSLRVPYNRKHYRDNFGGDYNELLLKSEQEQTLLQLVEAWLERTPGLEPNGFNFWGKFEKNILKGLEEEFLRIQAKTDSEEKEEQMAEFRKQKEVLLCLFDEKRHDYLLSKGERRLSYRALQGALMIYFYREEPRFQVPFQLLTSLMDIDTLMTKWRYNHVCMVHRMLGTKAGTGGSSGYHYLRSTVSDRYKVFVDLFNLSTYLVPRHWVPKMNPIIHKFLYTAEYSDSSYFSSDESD
Particulars: immunocompetent mice; cited from earlier work.

Data set [6] concerns the target T2, CYP2D6.
Data set [7] concerns the target T3, CYP3A4.
Source text: as §1

Where “and” joins values, the source holds several entries; their conditions need not be identical. Identical values can stand only once. Like-named read-outs stand apart in the source and are kept apart here.

T1 sequence (P48775 whole entry): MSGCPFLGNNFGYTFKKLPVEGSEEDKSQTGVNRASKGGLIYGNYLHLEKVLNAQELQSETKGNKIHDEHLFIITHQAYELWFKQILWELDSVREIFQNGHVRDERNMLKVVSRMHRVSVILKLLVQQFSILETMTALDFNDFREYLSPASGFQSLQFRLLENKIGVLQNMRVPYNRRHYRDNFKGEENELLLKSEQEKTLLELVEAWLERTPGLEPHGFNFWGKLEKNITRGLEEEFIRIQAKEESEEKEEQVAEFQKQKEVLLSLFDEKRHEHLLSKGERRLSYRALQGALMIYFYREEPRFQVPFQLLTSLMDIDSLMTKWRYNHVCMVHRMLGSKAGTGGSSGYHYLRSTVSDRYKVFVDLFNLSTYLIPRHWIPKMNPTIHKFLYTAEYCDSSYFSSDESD
T4 sequence (P48775 whole entry): as above

Regarding `O=C(NCCC(F)(F)F)c1ccc(-c2c[nH]c3cc(F)ccc23)cc1` [Example 134, 4-(6-Fluoro-1H-indol-3-yl)-N-(3,3,3-trifluoropropyl)benzamide], the IC50 (commonly the concentration at which inhibition is half-maximal) in data set [1] is ≤ 0.2 µM; against CYP2D6 [2], > 10 µM; on CYP3A4 [3], > 10 µM; at Recombinant TDO it was 1 to 5 µM.
As to `CN1CCN(CCCNC(=O)c2ccc(-c3c[nH]c4cc(F)ccc34)cc2)CC1` [Example 135, 4-(6-Fluoro-1H-indol-3-yl)-N-[3-(4-methylpiperazin-1-yl)propyl]benzamide], the IC50 in data set [1] is ≤ 0.2 µM; against CYP2D6 [2], > 10 µM; against CYP3A4 [3], 5 to 10 µM; at Recombinant TDO it was < 1 µM.
With `COc1cc(-c2c[nH]c3cc(F)ccc23)ccc1C(=O)N[C@@H](C)CO` [Example 136, 4-(6-Fluoro-1H-indol-3-yl)-N-[(1S)-2-hydroxy-1-methyl-ethyl]-2-methoxy-benzamide], the IC50 in data set [1] was ≤ 0.5 µM and 0.2 to 0.5 µM; against CYP2D6 [2], > 10 µM; against CYP3A4 [3], > 10 µM; at Recombinant TDO, < 1 µM.
`COc1cc(-c2c[nH]c3cc(F)ccc23)ccc1C(=O)NCCCN(C)C` [Example 137, N-[3-(dimethylamino)propyl]-4-(6-fluoro-1H-indol-3-yl)-2-methoxy-benzamide]: the IC50 is ≤ 0.2 µM in data set [1], > 10 µM against CYP2D6 [2], > 10 µM on CYP3A4 [3] and < 1 µM at Recombinant TDO.
As to `Fc1ccc2c(/C=C/c3nn[nH]n3)c[nH]c2c1` [LM10], in data set [4], the “Signs of toxicity in the liver or any other organs” value is given as “did not show any signs of toxicity”. In addition, the “Effect on TDO-mediated prevention of tumor cell rejection” value in data set [5] is “reverted”.
As for “N-(2-diethylaminoethyl)-4-(6-fluoro-1H-indol-3-yl)benzamide [Example 81]”, the IC50 against CYP2D6 [6] is > 10 µM; at CYP3A4 [7], 5 to 10 µM.
Regarding “N-(3,3-difluorocyclobutyl)-4-(6-fluoro-1H-indol-3-yl)benzamide [Example 114]”, the IC50 against CYP2D6 [6] and against CYP3A4 [7] was > 10 µM throughout.
Regarding “N-[3-(dimethylamino)propyl]-4-(6-fluoro-1H-indol-3-yl)benzamide [Example 8]”, the IC50 on CYP2D6 [6] and against CYP3A4 [7] was > 10 µM each time.
As for “N-cyclopropyl-4-(6-fluoro-1H-indol-3-yl)benzamide [Example 86]”, the IC50 on CYP2D6 [6] and at CYP3A4 [7] was > 10 µM in each case.
